Measurements from PMC11943723, “Synthesis and Biological Activity of Glycosyl Thiazolyl Disulfides Based on Thiacarpine, an Analogue of the Cytotoxic Alkaloid Polycarpine from the Ascidian Polycarpa aurata” (Marine Drugs, 2025).
Converted amounts (≈) assume the structure as drawn. Counter-ions that a name gives are not always drawn.

Legend:
[1] = system: Escherichia coli (VKPM B-7935); assay: Antimicrobial activity, inhibition of microbial growth (optical density); assay type: cell-based; conditions: Escherichia coli; 18 h, OD 620 nm; read-out: Inhibition of Microbial Growth MIC50, E. coli
Description: (§1) The antimicrobial activity of the compounds was determined against Gram-positive bacteria Staphylococcus aureus (ATCC 21027), Gram-negative bacteria Escherichia coli (VKPM B-7935), and yeast-like fungi Candida albicans (KMM 455) (all test strains were obtained from the Collection of Marine Microorganisms KMM PIBOC FEB RAS) in liquid nutrient media. Test cultures of S. aureus, E. coli, and C. albicans were grown in Petri dishes on a solid nutrient medium (Mueller–Hinton broth with the addition of agar—16.0 g/L) at 37 °C for 24 h. The antimicrobial activity of the compounds was determined by the change in optical density and expressed as the percentage of bacterial inhibition at different concentrations of substances added to the well of the microorganism suspension, compared to the control. The compounds were dissolved in dimethyl sulfoxide (DMSO) at a concentration of 10 mM and stored at −20 °C. Before the experiment, the solution of substances in DMSO was diluted with PBS at a concentration of 0.5–100.0 µM and added to the wells so that the concentration of DMSO in the culture medium was less than 1%. Antimicrobial activity was determined in 96-well microplates in a liquid Mueller–Hinton nutrient medium. For S. aureus, E. coli, and C. albicans, a bacterial suspension of 10^6 CFU in 1 mL of the media was used, 90 μL was added to each well of the microplates and then incubated in a thermostatted shaker at 37 °C for 18 h. Inhibition of microorganism growth was assessed by measuring the optical density at 620 nm using a microplate reader (Thermo Fisher Scientific, Waltham, MA, USA) after preliminary shaking of the plates for 10 min. All experiments were performed in triplicate. Gentamicin (S. aureus and E. coli) and nitrofungin (C. albicans) were used as positive controls, and 1% DMSO in PBS was used as a negative control.

[2] = system: Candida albicans (KMM 455); assay: as above; assay type: cell-based; conditions: 18 h, OD 620 nm; for MIC50: Candida albicans, KMM455, read-out: Inhibition of Microbial Growth MIC50, C. albicans
Description: as §1

[3] = system: Staphylococcus aureus (ATCC 21027); assay: as above; assay type: cell-based; conditions: Staphylococcus aureus, ATCC21027; 18 h, OD 620 nm; read-out: Inhibition of Microbial Growth MIC50, S. aureus
Description: as §1

HeLa (cervical cancer) = assay: MTT cell viability assay, HeLa; assay type: cell-based, human; conditions: Homo sapiens, HeLa, 24 h, 24 h incubation, read-out: Cytotoxicity EC50, HeLa
Description: (§2) Human erythrocytes were purchased from the blood transfusion station Vladivostok. Human breast cancer cell lines MCF-7^HTB−22, and MDA-MB-231^CRM-HTB−26, liver hepatocellular carcinoma Hep G2^HB−8065, prostate adenocarcinoma PC-3^CRL−1435, cervical adenocarcinoma HeLa^CRM-CCL−2, and normal bronchial epithelial cells BEAS-2B ^CRL−3588 were received from ATCC (Manassas, VA, USA).
(§3) DMEM medium (Biolot, Russia) with 1% penicillin/streptomycin and 10% fetal bovine serum (FBS) (Biolot, Russia) was used for cultivation of Hep G2, PC-3, HeLa, and Beas-2b. MEM medium (Biolot, Russia) with 1% penicillin/streptomycin sulfate (Biolot, Russia) and FBS (Biolot, Russia) to a final concentration of 10% for MCF-7 and MDA-MB-231 cells.
(§4) The effect of the studied compounds on the viability of human cancer and normal cells was determined using the MTT (3-[4,5-dimethylthiazol-2-yl]-2,5 diphenyl tetrazolium bromide) assay. Briefly, 6 × 10^3 cells per well were seeded into 96-well plates and incubated for 24 h for adhesion, followed by incubation for 24 h with different concentrations of the substances. After incubation, the medium containing the test substances was replaced with 100 µL of fresh medium. Then, 10 μL of MTT (Sigma-Aldrich, Madison, WI, USA) reagent (5 mg/mL MTT in PBS) was added into the cells and the plates for additional 4 h. Thereafter, 100 µL of SDS-HCl solution (1 g SDS/10 mL dH2O/17 µL 6N HCl) was added to each well and incubated for 18 h. The absorbance of the converted formazan dye was measured using a Multiskan FC microplate photometer (Thermo Scientific, Waltham, MA, USA) at a wavelength of 570 nm. All experiments were performed in triplicate. Cytotoxic activity was expressed as a percentage of the cell viability.

[4] = MTT cell viability assay, BEAS-2B normal cells; assay type: cell-based; conditions: human, BEAS-2B normal bronchial epithelial cells, 24 h incubation, read-out: Cytotoxicity EC50, BEAS 2B
Description: as §2, §3, §4

[5] = system: Hep G2 (hepatocellular carcinoma); assay: MTT cell viability assay, Hep G2; assay type: cell-based; conditions: Homo sapiens, HepG2, 24 h incubation, read-out: Cytotoxicity EC50, Hep G2
Description: as §2, §3, §4

[6] = system: MDA-MB-231 (triple-negative breast cancer); assay: MTT cell viability assay, MDA-MB-231; assay type: cell-based, human; conditions: Homo sapiens, MDA-MB-231, 24 h, 24 h incubation, read-out: Cytotoxicity EC50, MDA-MB-231 (TNBC)
Description: as §2, §3, §4

[7] = system: Candida albicans (KMM 455); assay: Inhibition of biofilm formation (MTT); assay type: cell-based; conditions: 24 h
Description: Biofilm formation was performed according to the method described by Walencka et al., with minor modifications. The compounds were dissolved in dimethyl sulfoxide (DMSO) at a concentration of 10 mM and stored at −20 °C. Before the experiment, the solution of substances in DMSO was diluted with PBS at a concentration of 0.5–100.0 µM and added to the wells so that the concentration of DMSO in the culture medium was less than 1%. Biofilm formation was assessed in 96-well microplates in a liquid Mueller–Hinton nutrient medium. For S. aureus, E. coli, and C. albicans, a bacterial suspension of 10^6 CFU in 1 mL of medium was used, 90 μL was added to each well of the microplates and then incubated in a thermostatted shaker at 37 °C for 24 h. After incubation, the suspension of planktonic microorganisms was removed from the plate and washed with PBS. Next, 100 μL of PBS and 10 μL of MTT (3-(4,5-dimethylthiazol-2-yl)-2,5-diphenyltetrazolium bromide, MTT reagent, Sigma) stock solution (5 mg/mL) were added to the wells and incubated for 3 h at 37 °C. After incubation, all the solution was removed from the wells, 100 μL of DMSO was added, and the plate was shaken for 10 min until all formazan crystals had dissolved. The absorption was measured using a plate reader (Thermo Fisher Scientific, Waltham, MA, USA) at a wavelength of 570 nm. The activity of the substances was assessed by the change in optical density compared with that of the control. All experiments were performed in triplicate. Gentamicin (S. aureus and E. coli) and nitrofungin (C. albicans) were used as positive controls, and 1% DMSO in PBS was used as a negative control.

Compound | MIC50 [1] [µM] | MIC50 [2] [µM] | MIC50 [3] [µM] | EC50 (HeLa (cervical cancer)) [µM] | EC50 at 24 h [4] [µM] | EC50 [5] [µM] | EC50 [6] [µM] | Inhibition of Microbial Growth MIC50, C. albicans [2] [µM] | Inhibition of Biofilm Formation MIC50, C. albicans [7] [µM]
Nc1nc(-c2ccccc2)c(SSc2sc(N)nc2-c2ccccc2)s1 [Compound 1b, bis(2-amino-4-phenyl-5-thiazolyl)disulfide] | 13.9 ± 1.3 (≈ 5.76 µg/mL) | 6.2 ± 0.6 (≈ 2.57 µg/mL) | 5.2 ± 0.5 (≈ 2.16 µg/mL) |  |  |  |  |  | 
Nc1nc(-c2ccc(Br)cc2)c(SSc2sc(N)nc2-c2ccc(Br)cc2)s1 [Compound 1c] | 15.7 ± 2.3 (≈ 8.99 µg/mL) | 3.1 ± 0.4 (≈ 1.77 µg/mL) | 3.4 ± 0.4 (≈ 1.95 µg/mL) |  |  |  |  |  | 
Nc1nc(-c2ccc(Cl)cc2)c(SSc2sc(N)nc2-c2ccc(Cl)cc2)s1 [Compound 1d] | 30.9 ± 3 (≈ 14.9 µg/mL) | 5 ± 0.4 (≈ 2.42 µg/mL) | 2.8 ± 0.2 (≈ 1.35 µg/mL) |  |  |  |  |  | 
Cc1ccc(-c2nc(N)sc2SSc2sc(N)nc2-c2ccc(C)cc2)cc1 [Compound 1e] | 33.9 ± 3.9 (≈ 15 µg/mL) | 19.5 ± 2 (≈ 8.63 µg/mL) | 30.7 ± 2.1 (≈ 13.6 µg/mL) |  |  |  |  |  | 
COc1ccc(-c2nc(N)sc2SS[C@@H]2O[C@H](COC(C)=O)[C@@H](OC(C)=O)[C@H](OC(C)=O)[C@H]2OC(C)=O)cc1 [Compound 4a, 5-[(2,3,4,6-Tetra-O-acetyl-β-D-glucopyranosyl)disulfanyl]-2-amino-4-(4-methoxyphenyl) thiazole] | > 50 | 31.5 ± 3.1 (≈ 18.9 µg/mL) | 32.5 ± 3.2 (≈ 19.5 µg/mL) | > 25 | 19.9 | > 25 | > 25 |  | 
CC(=O)OC[C@H]1O[C@@H](SSc2sc(N)nc2-c2ccccc2)[C@H](OC(C)=O)[C@@H](OC(C)=O)[C@@H]1OC(C)=O [Compound 4b, 5-[(2,3,4,6-Tetra-O-acetyl-β-D-glucopyranosyl)disulfanyl]-2-amino-4-phenylthiazole] | 31.2 ± 2 (≈ 17.8 µg/mL) | 20.5 ± 2.7 (≈ 11.7 µg/mL) | 28.4 ± 3.1 (≈ 16.2 µg/mL) | > 25 | 19 | > 25 | 24.1 |  | 
CC(=O)O[C@@H]1[C@@H](OC(C)=O)[C@H](SSc2sc(N)nc2-c2ccccc2)OC[C@H]1OC(C)=O [Compound 4g, 5-[(2,3,4-Tri-O-acetyl-β-D-xylopyranosyl)disulfanyl]-2-amino-4-phenylthiazole] | 42.1 ± 4.1 (≈ 21 µg/mL) | 35.7 ± 3 (≈ 17.8 µg/mL) | 34 ± 1.6 (≈ 17 µg/mL) | > 25 | > 25 | > 25 | > 25 |  | 
CC(=O)O[C@@H]1[C@@H](OC(C)=O)[C@H](SSc2sc(N)nc2-c2ccc(C)cc2)OC[C@H]1OC(C)=O [Compound 4j, 5-[(2,3,4-Tri-O-acetyl-β-D-xylopyranosyl)disulfanyl]-2-amino-4-(p-tolyl)thiazole] | 25.5 ± 2 (≈ 13.1 µg/mL) | 18.1 ± 1 (≈ 9.28 µg/mL) | 25 ± 1.4 (≈ 12.8 µg/mL) | > 25 | > 25 | > 25 | 23.7 |  | 
COc1ccc(-c2nc(N)sc2SS[C@@H]2O[C@H](CO)[C@@H](O)[C@H](O)[C@H]2O)cc1 [Compound 5a, 5-[(β-D-glucopyranosyl)disulfanyl]-2-amino-4-(4-methoxyphenyl)thiazole hydrochloride] | > 50 | > 50 | > 50 | > 25 | > 25 | > 25 | 24.9 |  | 
Nc1nc(-c2ccccc2)c(SS[C@@H]2O[C@H](CO)[C@@H](O)[C@H](O)[C@H]2O)s1 [Compound 5b, 5-[(β-D-glucopyranosyl)disulfanyl]-2-amino-4-phenylthiazole hydrochloride] | > 50 | > 50 | > 50 | > 25 | 20.8 | > 25 | > 25 |  | 
Cc1ccc(-c2nc(N)sc2SS[C@@H]2O[C@H](CO)[C@@H](O)[C@H](O)[C@H]2O)cc1 [Compound 5e, 5-[(β-D-glucopyranosyl)disulfanyl]-2-amino-4-(p-tolyl)thiazole hydrochloride] | > 50 | 38.5 ± 3.4 | > 50 | > 25 | 22.6 | > 25 | 23.5 |  | 
COc1ccc(-c2nc(N)sc2SS[C@@H]2OC[C@@H](O)[C@H](O)[C@H]2O)cc1 [Compound 5f, 5-[(β-D-xylopyranosyl)disulfanyl]-2-amino-4-(4-methoxyphenyl)thiazole hydrochloride] | > 50 | 36.2 ± 2.1 | > 50 | > 25 | > 25 | > 25 | > 25 |  | 
Nc1nc(-c2ccccc2)c(SS[C@@H]2OC[C@@H](O)[C@H](O)[C@H]2O)s1 [Compound 5g, 5-[(β-D-xylopyranosyl)disulfanyl]-2-amino-4-phenylthiazole hydrochloride] | 24.9 ± 2.2 | 25.3 ± 1 | > 50 | > 25 | 22 | > 25 | > 25 |  | 
Nc1nc(-c2ccc(Cl)cc2)c(SS[C@@H]2OC[C@@H](O)[C@H](O)[C@H]2O)s1 [Compound 5i, 5-[(β-D-xylopyranosyl)disulfanyl]-2-amino-4-(4-clorophenyl)thiazole hydrochloride] | 21 ± 3 | 13.8 ± 1.2 | 13.7 ± 1.1 | > 25 | > 25 | > 25 | > 25 |  | 
CNC(C)C1CCC(N)C(OC2C(N)CC(N)C(OC3OCC(C)(O)C(NC)C3O)C2O)O1 (centres unmarked) [Gentamicin, reference compound] | 5.1 ± 0.7 (≈ 2.44 µg/mL) |  | 4.3 ± 0.8 (≈ 2.05 µg/mL) |  |  |  |  |  | 
O=[N+]([O-])c1ccc(O)c(Cl)c1 [Nitrofungin, reference compound] |  |  |  |  |  |  |  | 4.1 ± 0.5 | 4.3 ± 0.4
